pIC50: −log10 of the molar value. Read-outs that look alike come from different tables or passages of the source.
How the values were obtained:
human PI3Kα protein = biological target: T1, human PI3Kα protein (Homo sapiens, UniProt P42336); assay: PI3Kα enzyme assay (ADP-Glo); format: biochemical; conditions: read-out: PI3Kα enzyme inhibitory activity
T1 construct: purchased Carna Biosciences, Inc; host or cells: baculovirus expression system
Method in brief: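 Biotinylated human PI3Kα (baculovirus-expressed, 4.5 nmol/L) pre-incubated 15 min with compound in Tris-HCl pH 7.5, MgCl2, BSA; reaction 60 min at 25° C with 50 μmol/L PIP2 and 100 μmol/L ATP final. ADP quantified by ADP-Glo luminescence; IC50 calculated.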

[1] = biological target: T2, GST fusion human ERK2 protein (Homo sapiens, UniProt P28482); assay: ERK2 enzyme assay (2); format: biochemical; conditions: read-out: ERK2 enzyme inhibitory activity (2)
T2 construct: purchased Carna Biosciences, Inc; host or cells: E. coli expression system
Method in brief: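 GST-tagged human ERK2 expressed in E. coli (1.25 nmol/L) was preincubated with compound for 15 min at room temperature in pH 7.5 Hepes buffer with MgCl2, DTT and Brij35. Reaction with FL-Peptide 8 (final 4.25 μmol/L) and ATP (final 1 mmol/L) ran 120 min at 25 °C; EDTA stopped it, and phosphorylated peptide was quantified by mobility-shift separation to derive IC50.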

T2 sequence (P28482 whole entry, the tested form may be a part): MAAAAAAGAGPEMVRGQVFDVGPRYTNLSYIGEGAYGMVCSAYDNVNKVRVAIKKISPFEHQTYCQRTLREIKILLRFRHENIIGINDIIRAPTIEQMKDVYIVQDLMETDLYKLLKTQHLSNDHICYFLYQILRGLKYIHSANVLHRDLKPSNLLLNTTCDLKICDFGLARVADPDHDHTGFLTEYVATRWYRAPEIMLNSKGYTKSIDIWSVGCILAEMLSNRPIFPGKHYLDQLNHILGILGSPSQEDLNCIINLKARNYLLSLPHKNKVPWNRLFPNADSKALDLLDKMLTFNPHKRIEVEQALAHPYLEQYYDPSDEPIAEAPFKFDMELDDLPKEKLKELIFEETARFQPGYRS
T1 sequence (P42336 whole entry): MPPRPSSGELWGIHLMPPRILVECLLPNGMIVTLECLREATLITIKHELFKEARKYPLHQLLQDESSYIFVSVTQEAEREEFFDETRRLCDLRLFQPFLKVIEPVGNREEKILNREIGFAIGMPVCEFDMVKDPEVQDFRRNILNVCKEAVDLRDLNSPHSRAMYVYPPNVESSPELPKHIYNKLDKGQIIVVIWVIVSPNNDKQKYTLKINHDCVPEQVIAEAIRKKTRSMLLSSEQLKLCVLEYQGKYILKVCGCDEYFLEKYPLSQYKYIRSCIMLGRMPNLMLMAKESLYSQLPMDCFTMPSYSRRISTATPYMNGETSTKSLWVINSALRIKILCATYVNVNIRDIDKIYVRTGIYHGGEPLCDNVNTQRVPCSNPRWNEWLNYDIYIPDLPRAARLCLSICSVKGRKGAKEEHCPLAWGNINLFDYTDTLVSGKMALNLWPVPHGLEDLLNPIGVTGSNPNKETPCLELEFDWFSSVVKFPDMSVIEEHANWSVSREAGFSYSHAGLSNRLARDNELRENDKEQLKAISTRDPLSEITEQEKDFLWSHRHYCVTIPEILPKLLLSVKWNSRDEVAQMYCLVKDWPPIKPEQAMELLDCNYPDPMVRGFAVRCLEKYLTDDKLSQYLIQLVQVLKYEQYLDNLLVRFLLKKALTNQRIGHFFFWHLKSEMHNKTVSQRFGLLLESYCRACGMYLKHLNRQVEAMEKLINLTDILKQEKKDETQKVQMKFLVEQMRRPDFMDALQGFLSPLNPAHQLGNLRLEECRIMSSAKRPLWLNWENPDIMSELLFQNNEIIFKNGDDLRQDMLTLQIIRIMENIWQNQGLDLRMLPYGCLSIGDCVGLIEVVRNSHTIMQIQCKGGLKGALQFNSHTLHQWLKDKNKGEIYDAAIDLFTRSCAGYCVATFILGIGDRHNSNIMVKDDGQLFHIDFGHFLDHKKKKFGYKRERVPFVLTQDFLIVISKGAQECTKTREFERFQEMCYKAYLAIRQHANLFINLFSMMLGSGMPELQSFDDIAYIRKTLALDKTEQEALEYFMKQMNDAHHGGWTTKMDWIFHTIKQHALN
T1 sequence (P27986 whole entry partner): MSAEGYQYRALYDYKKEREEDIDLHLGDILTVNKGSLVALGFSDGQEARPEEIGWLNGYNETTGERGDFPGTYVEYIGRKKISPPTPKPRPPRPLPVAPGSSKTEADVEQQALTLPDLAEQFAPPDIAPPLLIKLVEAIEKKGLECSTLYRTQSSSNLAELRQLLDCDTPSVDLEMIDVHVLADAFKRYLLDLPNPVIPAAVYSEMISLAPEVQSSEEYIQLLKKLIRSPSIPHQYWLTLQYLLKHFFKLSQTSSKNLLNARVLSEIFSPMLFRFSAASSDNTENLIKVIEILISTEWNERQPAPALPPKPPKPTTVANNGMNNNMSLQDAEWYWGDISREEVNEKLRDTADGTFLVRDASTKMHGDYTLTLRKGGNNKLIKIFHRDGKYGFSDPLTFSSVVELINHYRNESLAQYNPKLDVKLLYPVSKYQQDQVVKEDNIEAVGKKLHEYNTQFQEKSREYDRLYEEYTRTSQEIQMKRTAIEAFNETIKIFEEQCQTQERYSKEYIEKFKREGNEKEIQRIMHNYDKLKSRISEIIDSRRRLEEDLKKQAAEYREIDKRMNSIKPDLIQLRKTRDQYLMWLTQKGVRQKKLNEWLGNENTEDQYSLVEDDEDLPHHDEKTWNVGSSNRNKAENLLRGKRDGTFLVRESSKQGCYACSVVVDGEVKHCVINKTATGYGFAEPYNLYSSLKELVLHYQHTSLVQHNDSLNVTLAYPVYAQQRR

Row | SMILES | pIC50 (human PI3Kα protein) | pIC50 ([1]; ERK2 enzyme assay (2)) | pIC50 [1]
1 | CC(C)c1cnnc(Nc2ccc3ncc(-c4cn(C)nc4/C=C/c4cccnc4)cc3n2)c1 [Example 0807] | > 6.00 | > 6.00 | –
2 | CC(C)c1cnnc(Nc2ccc3ncc(-c4cnn(CCN5C[C@@H](C)O[C@@H](C)C5)c4)cc3n2)c1 [Example 0617, 7-(1-(2-((2S,6R)-2,6-dimethylmorpholino)ethyl)-1H-pyrazol-4-yl)-N-(5-isopropylpyridazin-3-yl)-1,5-naphthyridine-2-amine] | > 6.00 | > 6.00 | –
3 | CC(C)c1cnnc(Nc2ccc3ncc(-c4cnn(CCCN5CC[C@H](F)C5)c4)cc3n2)c1 [Example 0428] | > 6.00 | > 6.00 | –
4 | CC(C)c1ccnc(Nc2ccc3ncc(-c4cnn(C)c4)cc3n2)c1 [Example 0551, N-(4-isopropylpyridin-2-yl)-7-(1-methyl-1H-pyrazol-4-yl)-1,5-naphthyridine-2-amine] | > 6.00 | 4.30 to 5.00 | –
5 | CC(=O)Nc1cc(-c2cnc3ccc(Nc4cc(C(C)C)cnn4)nc3c2)ccn1 [Example 0421, N-(4-(6-((5-isopropylpyridazin-3-yl)amino)-1,5-naphthyridin-3-yl)pyridin-2-yl)acetamide] | > 6.00 | > 6.00 | –
6 | CC(C)c1cnnc(Nc2ccc3ncc(-c4cnc(N5CCNCC5)s4)cc3n2)c1 [Example 0502] | > 6.00 | > 6.00 | –
7 | CC(C)c1cnnc(Nc2ccc3ncc(C(=O)Nc4ccncc4)cc3n2)c1 [Example 0669] | 5.00 to 6.00 | 5.00 to 6.00 | –
8 | CC(C)c1cnnc(Nc2ccc3ncc(-c4cnn(CCCN5CCOC(C)(C)C5)c4)cc3n2)c1 [Example 0658] | > 6.00 | > 6.00 | –
9 | CC(C)c1cnnc(Nc2ccc3ncc(N4CCC(F)(F)C4)cc3n2)c1 [Example 0893] | > 6.00 | > 6.00 | –
10 | CC(C)c1cnnc(Nc2ccc3ncc(-c4cn(C)nc4-c4ccc(N(C)C)nc4)cc3n2)c1 [Example 0793] | > 6.00 | 5.00 to 6.00 | –
11 | CC(C)c1cnnc(Nc2ccc3ncc(-c4cnn(CCCN(C)CC(N)=O)c4)cc3n2)c1 [Example 0671] | > 6.00 | > 6.00 | –
12 | COCCOC1CN(c2nn(C)cc2-c2cnc3ccc(Nc4cc(C(C)C)cnn4)nc3c2)C1 [Example 0933] | > 6.00 | – | > 6.00
13 | CC(C)c1cnnc(Nc2ccc3ncc(N4CCC(N5CCCC5)C4)cc3n2)c1 (stereo not shown) [Example 0899] | 5.00 to 6.00 | 5.00 to 6.00 | –
14 | CC(C)c1cnnc(Nc2ccc3ncc(-c4cnn(CCCN5CC[C@@H](F)C5)c4)cc3n2)c1 [Example 0429] | > 6.00 | > 6.00 | –
15 | CC(C)c1cnnc(Nc2ccc3ncc(N4CC(Oc5ccccc5)C4)cc3n2)c1 [Example 0860] | 5.00 to 6.00 | 5.00 to 6.00 | –
16 | CC(C)c1cnnc(Nc2ccc3ncc(N4CCCCC4)cc3n2)c1 [Example 0845, N-(5-isopropylpyridazin-3-yl)-7-(piperidin-1-yl)-1,5-naphthyridine-2-amine] | 5.00 to 6.00 | > 6.00 | –
17 | CC(C)c1cnnc(Nc2ccc3ncc(C4=CCN(C(=O)N(C)C)C4)cc3n2)c1 [Example 0907, 3-(6-((5-Isopropylpyridazin-3-yl)amino)-1,5-naphthyridin-3-yl)-N,N-dimethyl-2,5-dihydro-1H-pyrrole-1-carboxamide] | > 6.00 | – | > 6.00
18 | c1cncc(Cn2cc(-c3cnc4ccc(Nc5cc(C6CC6)cnn5)nc4c3)cn2)c1 [Example 0463, N-(5-cyclopropylpyridazin-3-yl)-7-(1-(pyridin-3-ylmethyl)-1H-pyrazol-4-yl)-1,5-naphthyridine-2-amine] | > 6.00 | > 6.00 | –
19 | CC(C)c1cnnc(Nc2ccc3nccc(-c4ccncc4)c3n2)c1 [Example 0410] | > 6.00 | > 6.00 | –
20 | CC(C)c1cnnc(Nc2ccc3ncc(-c4cnn(CCOC5CN(CC(F)F)C5)c4)cc3n2)c1 [Example 0747, 7-(1-(2-((1-(2,2-difluoroethyl)azetidin-3-yl)oxy)ethyl)-1H-pyrazol-4-yl)-N-(5-isopropylpyridazin-3-yl)-1,5-naphthyridine-2-amine] | > 6.00 | > 6.00 | –
